# Target: recombinant human MGAT2 (Homo sapiens (Human), UniProt Q3SYC2)
# Assay: Measurement of human MGAT2 inhibitory activity
# Assay type: biochemical
# Details: concentration exhibiting 50% enzyme inhibition; recombinant human MGAT2, 2-Oleoylglycerol/Oleoyl-CoA
# Experimental: A full-length human MGAT2 gene to which a Flag-tag had been added at the N-terminal was inserted into pFastBac (from Invitrogen). A recombinant baculovirus was produced in accordance with the protocol for a Bac-to-Bac baculovirus expression system (produced by Invitrogen), and Sf-9 cells were infected therewith. The cells were collected and sonicated, and then the membrane fraction was collected through centrifugation. Western blotting analysis with an anti-Flag antibody was performed for the membrane fraction to confirm expression, and the membrane fraction was used as a recombinant human MGAT2 enzyme solution.
# Solutions of the compounds of the present invention in DMSO were each aliquoted into 0.2-μL portions in a 384-well polystyrene microplate produced by Corning Incorporated, and 5 μL of an enzyme solution prepared with an assay buffer (100 mmol/L phosphate buffer (pH 7.4) containing 2 mmol/L DTT) and 5 μL of a substrate solution (100 mmol/L phosphate buffer (pH 7.4), 30 μmol/L 2-Oleoylglycerol, 10 μmol/L Oleoyl-CoA) were added thereto, and the resultant was stirred and centrifuged, and incubated in a moist chamber at room temperature for 1 hour. After enzymatic reaction, 50 μL of a quenching solution (containing 0.2 μmol/L Diolein-d5, 0.4% formic acid, and 50% isopropanol) containing Internal Standard (IS) was added to terminate the reaction, and the resultant was sealed in a plate produced by Shimadzu GLC Ltd., and then stirred and centrifuged, and measurement was performed by using an electrospray ionization method with a RapidFire360 and Agilent 6550 Q-TOF mass spectrometer. Diolein as a reaction product (P) of 2-Oleoylglycerol as the substrate and an ammonium adduct ion of the IS were detected, and the peak intensity ratio, P/IS, was calculated from the peak heights to evaluate the inhibitory activity. Inhibitory activities with/without addition of enzyme were defined as Control (+)/Control (−), respectively, and the respective % inhibitions were defined as 0% inhibition and 100% inhibition. The inhibitory activity was calculated from formula below with TIBCO Spotfire (produced by TIBCO Software Inc.)
# Inhibitory activity (%)=[1−{Sample−Control (−)}/{Control (+)−Control (−)}]*100 where Sample indicates a peak intensity ratio: P/IS, when the compound of the present invention was added.
# Sequence of recombinant human MGAT2 (Q3SYC2 whole entry): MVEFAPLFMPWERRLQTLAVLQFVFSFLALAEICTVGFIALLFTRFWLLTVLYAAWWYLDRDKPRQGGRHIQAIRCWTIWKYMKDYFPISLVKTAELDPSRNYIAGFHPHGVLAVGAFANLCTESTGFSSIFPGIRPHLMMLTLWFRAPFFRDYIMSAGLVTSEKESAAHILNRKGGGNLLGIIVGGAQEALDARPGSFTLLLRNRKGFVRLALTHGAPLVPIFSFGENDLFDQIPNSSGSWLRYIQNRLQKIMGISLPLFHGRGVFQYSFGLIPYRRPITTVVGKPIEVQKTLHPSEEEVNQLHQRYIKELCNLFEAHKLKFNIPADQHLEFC
row,IC50,Compound
1,4.49 nM,CCOc1ccc2c(c1)OCC[C@@]21Cn2nc(-c3ccc(F)cc3)c(NC(=O)CS(C)(=O)=O)c2C(=O)N1 [Compound I-134]
2,3.22 nM,CCOc1ccc2c(c1)OCC[C@@]21Cn2nc(-c3ccc(F)c(F)c3)c(NC(=O)CS(C)(=O)=O)c2C(=O)N1 [Compound I-135]
3,3.55 nM,CS(=O)(=O)CC(=O)Nc1c(-c2ccc(Cl)c(F)c2)nn2c1C(=O)N[C@@]1(CCc3cc(F)cc(F)c31)C2 [Compound I-138]
4,11.1 nM,CS(=O)(=O)CC(=O)Nc1c(CCC2CC2)nn2c1C(=O)N[C@@]1(CCc3cc(F)cc(F)c31)C2 [Compound I-140]
5,1.4 nM,CS(=O)(=O)CC(=O)Nc1c(-c2ccc(Cl)c(F)c2)nn2c1C(=O)N[C@@]1(CCOc3cc(F)cc(F)c31)C2 [Compound I-144]
6,9.7 nM,CS(=O)(=O)CC(=O)Nc1c(-c2ccc(F)cn2)nn2c1C(=O)N[C@]1(CCc3cc(F)cc(F)c31)C2 [Compound I-146]
7,10.6 nM,CS(=O)(=O)CC(=O)Nc1c(-c2ccc(F)c(F)c2)nn2c1C(=O)N[C@]1(CCc3cc(F)cc(F)c31)C2 [Compound I-148]
8,23.4 nM,CS(=O)(=O)CC(=O)Nc1c(CCC2CC2)nn2c1C(=O)N[C@]1(CCc3cc(F)cc(F)c31)C2 [Compound I-149]
9,11.3 nM,CS(=O)(=O)CC(=O)Nc1c(-c2ccc(F)cn2)nn2c1C(=O)N[C@]1(CCOc3cc(F)cc(F)c31)C2 [Compound I-150]
10,8.24 nM,CS(=O)(=O)CC(=O)Nc1c(-c2ccc(F)c(F)c2)nn2c1C(=O)N[C@]1(CCOc3cc(F)cc(F)c31)C2 [Compound I-152]

# The remaining lines, values behind:
row,Compound,IC50
1,CCCCCc1nn2c(c1NC(=O)CS(C)(=O)=O)C(=O)N[C@]1(CCc3cc(OCC)ccc31)C2 [Compound I-115],14.5 nM
2,CCOc1ccc2c(c1)CC[C@]21Cn2nc(-c3ccc(F)cc3)c(NC(=O)CS(C)(=O)=O)c2C(=O)N1 [Compound I-116],6.72 nM
3,CCOc1ccc2c(c1)CC[C@]21Cn2nc(-c3ccc(F)c(F)c3)c(NC(=O)CS(C)(=O)=O)c2C(=O)N1 [Compound I-117],4.83 nM
4,CCS(=O)(=O)CC(=O)Nc1c(-c2ccc(F)cn2)nn2c1C(=O)N[C@@]1(CCOc3cc(F)cc(F)c31)C2 [Compound I-118],3.76 nM
5,CS(=O)(=O)CC(=O)Nc1c(-c2ccc(F)cn2)nn2c1C(=O)N[C@@]1(CCOc3cc(F)cc(F)c31)C2 [Compound I-119],2.98 nM
6,CS(=O)(=O)CC(=O)Nc1c(CCC2CC2)nn2c1C(=O)N[C@@]1(CCOc3cc(F)cc(F)c31)C2 [Compound I-120],2.57 nM
7,CS(=O)(=O)CC(=O)Nc1c(-c2ccc(F)cn2)nn2c1C(=O)N[C@@]1(CCc3cc(F)cc(F)c31)C2 [Compound I-121],6.02 nM
8,CCS(=O)(=O)CC(=O)Nc1c(-c2ccc(C)cn2)nn2c1C(=O)N[C@@]1(CCc3cc(F)cc(F)c31)C2 [Compound I-122],21.4 nM
9,CS(=O)(=O)CC(=O)Nc1c(-c2ccc(F)cc2)nn2c1C(=O)N[C@@]1(CCOc3cc(F)cc(F)c31)C2 [Compound I-125],2.8 nM
10,CCS(=O)(=O)CC(=O)Nc1c(-c2ccc(C)cn2)nn2c1C(=O)N[C@@]1(CCc3cc(OCC(F)(F)F)ccc31)C2 [Compound I-127],2.77 nM
11,Cc1ccc(-c2nn3c(c2NC(=O)CS(=O)(=O)N(C)C)C(=O)N[C@@]2(CCc4cc(OCC(F)(F)F)ccc42)C3)nc1 [Compound I-128],91.9 nM
12,CS(=O)(=O)CC(=O)Nc1c(-c2ccc(F)cc2)nn2c1C(=O)N[C@@]1(CCc3cc(F)cc(F)c31)C2 [Compound I-129],10 nM
13,CS(=O)(=O)CC(=O)Nc1c(-c2ccc(C(F)F)cc2)nn2c1C(=O)N[C@@]1(CCc3cc(F)cc(F)c31)C2 [Compound I-131],9.33 nM
14,CCOc1ccc2c(c1)OCC[C@]21Cn2nc(-c3ccc(F)cc3)c(NC(=O)CS(C)(=O)=O)c2C(=O)N1 [Compound I-132],3.1 nM
